Laboratory results reported in patent US20240043427A1 (Gilead Sciences, Inc., priority 2020, published 2024).

Legend:
[1] = biological target: T1, CD73 (Homo sapiens (Human), UniProt P21589); assay: MDA-MB-231 Cell Based CD73 Activity Assay (DMEM); conditions: MDA-MB-231-GFP cells, DMEM medium with 10% human plasma, 200 uM AMP
[2] = biological target: T1, CD73; assay type: biochemical; conditions: 1 mM NaH2PO4 in enzyme buffer, CD73 0.3 nM, AMP 15 uM

T1 sequence (P21589 27-574): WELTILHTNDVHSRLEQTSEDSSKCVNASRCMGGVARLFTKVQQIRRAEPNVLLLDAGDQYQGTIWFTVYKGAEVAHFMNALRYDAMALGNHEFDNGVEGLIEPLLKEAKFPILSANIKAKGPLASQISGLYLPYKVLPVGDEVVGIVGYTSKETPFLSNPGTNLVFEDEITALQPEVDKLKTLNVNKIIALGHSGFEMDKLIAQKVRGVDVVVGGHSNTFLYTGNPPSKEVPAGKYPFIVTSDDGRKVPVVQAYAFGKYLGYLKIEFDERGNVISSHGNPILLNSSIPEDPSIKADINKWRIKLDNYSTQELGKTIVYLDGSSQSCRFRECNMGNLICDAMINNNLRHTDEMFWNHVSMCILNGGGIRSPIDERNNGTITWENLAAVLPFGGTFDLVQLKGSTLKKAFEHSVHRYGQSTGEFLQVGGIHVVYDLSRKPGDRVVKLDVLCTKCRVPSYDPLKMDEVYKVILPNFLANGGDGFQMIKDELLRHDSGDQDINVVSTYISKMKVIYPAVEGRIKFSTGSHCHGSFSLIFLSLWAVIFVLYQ

Structure (SMILES)	EC50 [1] [nM]	IC50 [2] [nM]
O=c1[nH]cc(-c2cc([C@H]3C[C@@H]3c3ccc4cnn(CC(F)(F)F)c4c3F)c3ncnn3n2)c(=O)[nH]1 [Example 629, 5-(8-((1S,2S)-2-(7-fluoro-1-(2,2,2-trifluoroethyl)-1H-indazol-6-yl)cyclopropyl)-[1,2,4]triazolo[1,5-b]pyridazin-6-yl)pyrimidine-2,4(1H,3H)-dione]	0.05	0.2
O=c1[nH]cc(-c2cc([C@@H]3C[C@H]3c3ccc(Cl)cc3)c3nccn3n2)c(=O)[nH]1 [Example 634, 5-(8-((1R,2R)-2-(4-chlorophenyl)cyclopropyl)imidazo[1,2-b]pyridazin-6-yl)pyrimidine-2,4(1H,3H)-dione]	39	5.19
O=c1[nH]cc(-c2cc([C@H]3C[C@@H]3c3ncc(C(F)(F)F)cc3F)c3nccn3n2)c(=O)[nH]1 [Example 635, 5-(8-((1S,2S)-2-(3-fluoro-5-(trifluoromethyl)pyridin-2-yl)cyclopropyl)imidazo[1,2-b]pyridazin-6-yl)pyrimidine-2,4(1H,3H)-dione]	2.75	2.08
O=c1[nH]cc(-c2cc([C@H]3C[C@@H]3c3ccc4nc5n(c4c3)[C@H](C(F)(F)F)CC5)c3nccn3n2)c(=O)[nH]1 [Example 639, 5-(8-((1S,2S)-2-((S)-1-(trifluoromethyl)-2,3-dihydro-1H-benzo[d]pyrrolo[1,2-a]imidazol-7-yl)cyclopropyl)imidazo[1,2-b]pyridazin-6-yl)pyrimidine-2,4(1H,3H)-dione]	0.58	2.42
O=c1[nH]cc(-c2cc(N3CC4CC3C4)c3nccn3n2)c(=O)[nH]1 [Example 641, 5-(8-(2-azabicyclo[2.1.1]hexan-2-yl)imidazo[1,2-b]pyridazin-6-yl)pyrimidine-2,4(1H,3H)-dione]	207	77.5
O=c1[nH]cc(-c2cc(N3CC4CCC3C4)c3nccn3n2)c(=O)[nH]1 (stereo not drawn) [Example 643, 5-(8-(2-azabicyclo[2.2.1]heptan-2-yl)imidazo[1,2-b]pyridazin-6-yl)pyrimidine-2,4(1H,3H)-dione]	98.9	36.4
O=c1[nH]cc(-c2cc(N3CC4CC4(C(F)(F)F)C3)c3nccn3n2)c(=O)[nH]1 (stereo not drawn) [Example 645, 5-(8-(1-(trifluoromethyl)-3-azabicyclo[3.1.0]hexan-3-yl)imidazo[1,2-b]pyridazin-6-yl)pyrimidine-2,4(1H,3H)-dione]	79.6	49
O=c1[nH]cc(-c2cc(N3C4CCC3CC4)c3nccn3n2)c(=O)[nH]1 [Example 646, 5-(8-(7-azabicyclo[2.2.1]heptan-7-yl)imidazo[1,2-b]pyridazin-6-yl)pyrimidine-2,4(1H,3H)-dione]	338	> 250
O=c1[nH]cc(-c2cc(N3C4CCCC3CC4)c3nccn3n2)c(=O)[nH]1 [Example 648, 5-(8-(8-azabicyclo[3.2.1]octan-8-yl)imidazo[1,2-b]pyridazin-6-yl)pyrimidine-2,4(1H,3H)-dione]	1950	> 250
O=c1[nH]cc(-c2cc(N3CC4CC(C4)C3)c3nccn3n2)c(=O)[nH]1 [Example 650, 5-(8-(3-azabicyclo[3.1.1]heptan-3-yl)imidazo[1,2-b]pyridazin-6-yl)pyrimidine-2,4(1H,3H)-dione]	18.8	6.86
O=c1[nH]cc(-c2cc(N3CCC4CCC3C4)c3nccn3n2)c(=O)[nH]1 (stereo not drawn) [Example 651, 5-(8-(2-azabicyclo[3.2.1]octan-2-yl)imidazo[1,2-b]pyridazin-6-yl)pyrimidine-2,4(1H,3H)-dione]	480	129
CC(C)NC(=O)CC1CCN(c2cc(-c3c[nH]c(=O)[nH]c3=O)nn3ccnc23)C1 (stereo not drawn) [Example 654, 2-(1-(6-(2,4-dioxo-1,2,3,4-tetrahydropyrimidin-5-yl)imidazo[1,2-b]pyridazin-8-yl)pyrrolidin-3-yl)-N-isopropylacetamide]	133	54.5

Continued by falling EC50 [1], values first:

EC50 [1] [nM]	IC50 [2] [nM]	Structure (SMILES)
234	129	O=c1[nH]cc(-c2cc(N3CC4CCC3CC4)c3nccn3n2)c(=O)[nH]1 [Example 647, 5-(8-(2-azabicyclo[2.2.2]octan-2-yl)imidazo[1,2-b]pyridazin-6-yl)pyrimidine-2,4(1H,3H)-dione]
130	25.3	O=c1[nH]cc(-c2cc(N3CCC4(COC4)C3)c3nccn3n2)c(=O)[nH]1 [Example 653, 5-(8-(2-oxa-6-azaspiro[3.4]octan-6-yl)imidazo[1,2-b]pyridazin-6-yl)pyrimidine-2,4(1H,3H)-dione]
79.6	19.6	O=c1[nH]cc(-c2cc(N3CCC(CO)(CCl)C3)c3nccn3n2)c(=O)[nH]1 (stereo not drawn) [Example 652, 5-(8-(3-(chloromethyl)-3-(hydroxymethyl)pyrrolidin-1-yl)imidazo[1,2-b]pyridazin-6-yl)pyrimidine-2,4(1H,3H)-dione]
21.7	11.7	CC1(C#N)CCN(c2cc(-c3c[nH]c(=O)[nH]c3=O)nn3ccnc23)C1 (stereo not drawn) [Example 649, 1-(6-(2,4-dioxo-1,2,3,4-tetrahydropyrimidin-5-yl)imidazo[1,2-b]pyridazin-8-yl)-3-methylpyrrolidine-3-carbonitrile]
7.08	1.55	O=c1[nH]cc(-c2cc([C@H]3C[C@@H]3c3ccc(Cl)cc3)c3nccn3n2)c(=O)[nH]1 [Example 633, 5-(8-((1S,2S)-2-(4-chlorophenyl)cyclopropyl)imidazo[1,2-b]pyridazin-6-yl)pyrimidine-2,4(1H,3H)-dione]
0.39	2.06	O=c1[nH]cc(-c2cc([C@H]3C[C@@H]3c3cc4c(cn3)c(C(F)(F)F)nn4CC(F)(F)F)c3nccn3n2)c(=O)[nH]1 [Example 637, 5-(8-((1S,2S)-2-(1-(2,2,2-trifluoroethyl)-3-(trifluoromethyl)-1H-pyrazolo[4,3-c]pyridin-6-yl)cyclopropyl)imidazo[1,2-b]pyridazin-6-yl)pyrimidine-2,4(1H,3H)-dione]
0.23	0.73	O=c1[nH]cc(-c2cc([C@H]3C[C@@H]3c3cnc4cnn(CC(F)(F)F)c4c3)c3ncc(F)n3n2)c(=O)[nH]1 [Example 628, 5-(3-fluoro-8-((1S,2S)-2-(1-(2,2,2-trifluoroethyl)-1H-pyrazolo[4,3-b]pyridin-6-yl)cyclopropyl)imidazo[1,2-b]pyridazin-6-yl)pyrimidine-2,4(1H,3H)-dione]
0.13	0.34	O=c1[nH]cc(-c2cc([C@H]3C[C@@H]3c3cc4c(cn3)cnn4CC(F)(F)F)c3nccn3n2)c(=O)[nH]1 [Example 636, 5-(8-((1S,2S)-2-(1-(2,2,2-trifluoroethyl)-1H-pyrazolo[4,3-c]pyridin-6-yl)cyclopropyl)imidazo[1,2-b]pyridazin-6-yl)pyrimidine-2,4(1H,3H)-dione]
0.12	1.6	O=c1[nH]cc(-c2cc([C@H]3C[C@@H]3c3ccc4nc5n(c4c3)[C@@H](C(F)(F)F)CC5)c3nccn3n2)c(=O)[nH]1 [Example 640, 5-(8-((1S,2S)-2-((R)-1-(trifluoromethyl)-2,3-dihydro-1H-benzo[d]pyrrolo[1,2-a]imidazol-7-yl)cyclopropyl)imidazo[1,2-b]pyridazin-6-yl)pyrimidine-2,4(1H,3H)-dione]
